The values that follow come from US20230090337A1, “PHARMACEUTICAL FORMULATIONS COMPRISING 6-CHLORO-7-(4-(4-CHLOROBENZYL)PIPERAZIN-1 -YL)-2-(1,3-DIMETHYL-1 HPYRAZOL-4-YL)-3H- IMIDAZO[4,5-B]PYRIDINE” (ELLIPSES PHARMA LTD, priority 2020, published 2023).

A short description of data set [1]: Solubility of the compound of Formula (1) in non-ionic surfactants. The note with it: thermodynamic from solid. The class given is physicochemical. As to the method: Approximately 3 mg of the compound of Formula (1) (monofumarate) was weighed out into clean HLPC vials. Various non-ionic surfactants were added in 200 or 300 μL portions up to 1 ml in total. After each addition, the sample was with vortexed (2×30 seconds) sonicated for 6 minutes, and once 1 ml total had been added the sample was kept in an oven at 45° C. for 40 minutes before being cooled to RT to aid dissolution. Observations are provided below:
Those excipients that have a melting point above ambient temperature were heated to above their melting point (e.g. 50° C.-70° C.) and observations were made in the liquid phase.

Data set [2] is described as follows: Aqueous solubility of salt versus free base. The data set is classed as physicochemical.
The nature of data set [3]: Stability / hygroscopicity of salts. The note with it: e.g. due to lower hygroscopicity. The data set is classed as physicochemical.
The target in a further data set is T1, Aurora C (Homo sapiens, UniProt Q9UQB9).
T1 sequence (Q9UQB9 1-309): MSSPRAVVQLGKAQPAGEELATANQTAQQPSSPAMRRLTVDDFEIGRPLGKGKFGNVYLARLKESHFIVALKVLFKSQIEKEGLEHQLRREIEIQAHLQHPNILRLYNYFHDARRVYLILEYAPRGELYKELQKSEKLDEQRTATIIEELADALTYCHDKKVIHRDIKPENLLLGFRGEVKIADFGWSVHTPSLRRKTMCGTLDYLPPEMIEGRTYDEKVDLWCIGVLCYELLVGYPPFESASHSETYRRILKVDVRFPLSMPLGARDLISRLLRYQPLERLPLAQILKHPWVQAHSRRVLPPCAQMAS
The note with it: cited from earlier work.

Another data set deals with Aurora B (Homo sapiens, UniProt Q96GD4). The note with it: cited from earlier work.
Aurora B, sequence (Q96GD4 whole entry): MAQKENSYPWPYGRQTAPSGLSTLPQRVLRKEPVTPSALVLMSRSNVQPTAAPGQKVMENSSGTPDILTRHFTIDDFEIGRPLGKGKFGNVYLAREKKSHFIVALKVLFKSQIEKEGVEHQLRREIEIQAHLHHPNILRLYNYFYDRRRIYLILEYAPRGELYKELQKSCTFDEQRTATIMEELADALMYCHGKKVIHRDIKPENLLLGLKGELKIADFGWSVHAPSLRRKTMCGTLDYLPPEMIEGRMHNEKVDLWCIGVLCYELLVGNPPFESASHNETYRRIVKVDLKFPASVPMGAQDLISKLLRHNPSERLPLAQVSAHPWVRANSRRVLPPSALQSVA
The next data set deals with T2, Aurora A (Homo sapiens, UniProt O14965).
T2 sequence (O14965 1-403): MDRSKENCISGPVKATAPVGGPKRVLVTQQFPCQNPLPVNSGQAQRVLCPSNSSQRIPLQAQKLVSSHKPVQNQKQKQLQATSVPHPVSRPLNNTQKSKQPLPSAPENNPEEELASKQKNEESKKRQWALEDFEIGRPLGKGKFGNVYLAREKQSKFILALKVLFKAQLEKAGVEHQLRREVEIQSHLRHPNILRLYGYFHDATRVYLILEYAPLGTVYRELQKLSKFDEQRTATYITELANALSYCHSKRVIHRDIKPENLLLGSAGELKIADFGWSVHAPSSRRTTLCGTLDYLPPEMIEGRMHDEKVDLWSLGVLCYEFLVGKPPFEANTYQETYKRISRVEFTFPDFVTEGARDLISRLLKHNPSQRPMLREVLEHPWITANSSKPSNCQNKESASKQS
The settings on record: cited from earlier work.

Data set [4] is described as follows: Excipient solubilising ability (20% w/v aqueous excipient solutions, DMSO spike, observed for precipitation). The class given is physicochemical. The settings on record: for solubility: aqueous with cosolvent or surfactant or cyclodextrin, kinetic from dmso stock. How it is done: Promising non-ionic surfactants were further tested. Each was prepared as a 20% w/v aqueous solution.
The excipients tested were (HLB): Cremophor EL (12-14); Cremophor RH 40 (14-16); Labrasol ALF; Solutol HS15 (˜16); Poloxamer P124 (12-18); TPGS (˜13); and Gelucire 44/14 (˜11).
Initially, the concentrated DMSO solution was prepared at 30 mg/mL to give a starting concentration of 3 mg/mL of the compound of Formula (1) in the aqueous vehicle, and the concentration was reduced until a semi-solid excipient was identified which maintained a clear solution of the compound. No excipients solubilised the compound at concentrations >1.5 mg/mL in this experiment, but TPGS unexpectedly performed best—solubilising the compound at a concentration of 1.5 mg/mL in the aqueous vehicle (e.g. 100 μL portion of a 15 mg/mL solution of the compound in DMSO was added to each excipient solution to achieve the final concentration of 1.5 mg/mL). In TPGS the solution remained clear for up to 5 hours.

The next data set concerns cytochrome P450. The note with it: cited from earlier work.
The next data set has as its target T3, FLT3 kinases (Homo sapiens, UniProt P36888).
T3 sequence (P36888 27-993): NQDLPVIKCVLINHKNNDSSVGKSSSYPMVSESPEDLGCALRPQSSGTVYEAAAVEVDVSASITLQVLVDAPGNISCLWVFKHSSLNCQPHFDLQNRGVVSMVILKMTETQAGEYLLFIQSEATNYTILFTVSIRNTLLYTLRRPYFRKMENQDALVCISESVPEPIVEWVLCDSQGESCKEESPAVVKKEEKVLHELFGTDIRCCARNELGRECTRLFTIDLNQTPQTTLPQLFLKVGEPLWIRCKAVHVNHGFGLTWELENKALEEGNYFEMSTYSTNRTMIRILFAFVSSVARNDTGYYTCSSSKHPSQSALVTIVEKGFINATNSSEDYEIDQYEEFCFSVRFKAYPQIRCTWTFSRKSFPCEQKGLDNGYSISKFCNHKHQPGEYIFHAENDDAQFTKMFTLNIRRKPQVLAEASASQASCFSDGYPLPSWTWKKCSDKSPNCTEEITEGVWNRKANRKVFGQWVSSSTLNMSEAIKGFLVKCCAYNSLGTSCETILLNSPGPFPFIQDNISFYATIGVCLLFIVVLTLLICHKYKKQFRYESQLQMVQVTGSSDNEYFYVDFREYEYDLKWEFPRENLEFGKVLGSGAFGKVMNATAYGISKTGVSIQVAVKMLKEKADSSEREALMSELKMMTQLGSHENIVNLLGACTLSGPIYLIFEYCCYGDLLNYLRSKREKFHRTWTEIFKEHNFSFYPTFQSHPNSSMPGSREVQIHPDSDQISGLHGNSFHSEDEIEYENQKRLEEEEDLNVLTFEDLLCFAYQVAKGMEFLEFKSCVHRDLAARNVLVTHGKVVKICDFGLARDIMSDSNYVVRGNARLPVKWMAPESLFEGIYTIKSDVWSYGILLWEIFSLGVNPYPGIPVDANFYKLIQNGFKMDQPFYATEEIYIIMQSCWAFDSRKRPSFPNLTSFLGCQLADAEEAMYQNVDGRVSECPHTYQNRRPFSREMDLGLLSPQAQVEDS
The note with it: cited from earlier work.

The target of the next data set is hERG (Homo sapiens, UniProt Q12809). The settings on record: cited from earlier work.
hERG, sequence (Q12809 whole entry): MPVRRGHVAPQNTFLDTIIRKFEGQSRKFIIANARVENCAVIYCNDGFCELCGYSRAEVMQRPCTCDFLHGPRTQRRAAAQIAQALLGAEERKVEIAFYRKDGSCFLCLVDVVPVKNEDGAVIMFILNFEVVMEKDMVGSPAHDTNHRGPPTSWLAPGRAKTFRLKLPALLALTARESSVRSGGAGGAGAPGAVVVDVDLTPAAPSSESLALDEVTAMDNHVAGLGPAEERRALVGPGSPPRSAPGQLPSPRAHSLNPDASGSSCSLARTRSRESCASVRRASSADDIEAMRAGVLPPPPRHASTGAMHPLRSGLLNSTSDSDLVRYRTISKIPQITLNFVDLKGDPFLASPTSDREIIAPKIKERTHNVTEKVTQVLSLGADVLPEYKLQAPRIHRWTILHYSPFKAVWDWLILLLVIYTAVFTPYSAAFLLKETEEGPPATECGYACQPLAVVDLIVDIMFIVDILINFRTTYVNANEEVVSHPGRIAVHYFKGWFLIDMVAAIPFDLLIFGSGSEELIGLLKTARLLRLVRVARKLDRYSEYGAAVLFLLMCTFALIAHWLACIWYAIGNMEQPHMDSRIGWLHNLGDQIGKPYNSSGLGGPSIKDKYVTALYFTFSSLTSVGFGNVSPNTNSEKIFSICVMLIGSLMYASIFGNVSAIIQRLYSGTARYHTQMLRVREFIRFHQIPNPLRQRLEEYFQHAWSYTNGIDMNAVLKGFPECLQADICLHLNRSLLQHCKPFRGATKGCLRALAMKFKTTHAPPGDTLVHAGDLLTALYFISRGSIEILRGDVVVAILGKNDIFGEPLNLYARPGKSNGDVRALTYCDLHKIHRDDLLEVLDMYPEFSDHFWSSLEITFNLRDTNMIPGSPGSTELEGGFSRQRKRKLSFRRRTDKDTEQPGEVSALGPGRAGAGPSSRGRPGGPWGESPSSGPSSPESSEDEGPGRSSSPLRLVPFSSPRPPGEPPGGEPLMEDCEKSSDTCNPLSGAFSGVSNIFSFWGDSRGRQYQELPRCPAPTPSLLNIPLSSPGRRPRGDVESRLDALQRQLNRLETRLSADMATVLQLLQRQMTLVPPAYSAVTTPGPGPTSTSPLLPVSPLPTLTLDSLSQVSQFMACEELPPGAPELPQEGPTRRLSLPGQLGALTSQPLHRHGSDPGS

Read-outs that look alike come from different tables or passages of the source. Bounds are passed on as bounds.

Regarding `Cc1nn(C)cc1-c1nc2c(N3CCN(Cc4ccc(Cl)cc4)CC3)c(Cl)cnc2[nH]1.O=C(O)/C=C/C(=O)O` [compound of Formula (1) fumarate, 6-chloro-7-(4-(4-chlorobenzyl)piperazin-1-yl)-2-(1,3-dimethyl-1H-pyrazol-4-yl)-3H-imidazo[4,5-b]pyridine fumarate], the solubility at 40 min in data set [1] (Capryol 90 (non-ionic surfactant), oil or lipid, in Capryol 90 (fatty acid ester)) is less than 4600 µg/mL; in data set [1] (Capryol PC MG (non-ionic surfactant), oil or lipid, in Capryol PC MG (fatty acid ester)), less than 3600 µg/mL; in [1] (Cremophor EL (non-ionic surfactant), organic solvent or mixture, in Cremophor EL (glycerol derivative)) it was less than 4900 µg/mL; in [1] (Cremophor RH40 (non-ionic surfactant), organic solvent or mixture, in Cremophor RH40 (glycerol derivative)) it was less than 4400 µg/mL; in data set [1] (Gelucire 44/14 (non-ionic surfactant), organic solvent or mixture, in Gelucire 44/14 (fatty acid ester/glycerol derivative)), less than 3500 µg/mL; in data set [1] (Gelucire 50/13 (non-ionic surfactant), organic solvent or mixture, in Gelucire 50/13 (fatty acid ester/glycerol derivative)), less than 2700 µg/mL. For the same compound, the solubility at 40 min is less than 4500 µg/mL in data set [1] (Kollisolv P124 (non-ionic surfactant), organic solvent or mixture, in Kollisolv P124 (co-polymer)); less than 2100 µg/mL in [1] (Labrafac PC (non-ionic surfactant), oil or lipid, in Labrafac PC (fatty acid ester)); less than 5000 µg/mL in data set [1] (Labrafil 1944 (non-ionic surfactant), oil or lipid, in Labrafil 1944 (glycerol derivative)); less than 5500 µg/mL in data set [1] (Labrafil 2125 (non-ionic surfactant), oil or lipid, in Labrafil 2125 (glycerol derivative)); less than 3500 µg/mL in [1] (Labrasol ALF (non-ionic surfactant), organic solvent or mixture, in Labrasol ALF (glycerol derivative)); less than 3200 µg/mL in data set [1] (Miglyol 812N (non-ionic surfactant), oil or lipid, in Miglyol 812N (glycerol derivative)). Further, the solubility at 40 min was less than 4300 µg/mL in data set [1] (Softisan 378 (non-ionic surfactant), oil or lipid, in Softisan 378 (glycerol derivative)); less than 3700 µg/mL in data set [1] (Tween 80 (non-ionic surfactant), organic solvent or mixture, in Tween 80 (sorbitan derivative), ~3 mg monofumarate, up to 1 ml, vortexed, sonicated, 45° C. 40 min); less than 3200 µg/mL in [1] (Vitamin E TPGS (non-ionic surfactant), organic solvent or mixture, in Vitamin E TPGS (vitamin E derivative)). For the same compound, in [2], the “aqueous solubility compared with free base” value is reported as “higher aqueous solubility than the free base”. Also, the “stability compared with other pharmaceutically acceptable salts” value in [3] is listed as “greater stability”.
In the case of `Cc1nn(C)cc1-c1nc2c(N3CCN(Cc4ccc(Cl)cc4)CC3)c(Cl)cnc2[nH]1` [compound of Formula (1), 6-chloro-7-(4-(4-chlorobenzyl)piperazin-1-yl)-2-(1,3-dimethyl-1H-pyrazol-4-yl)-3H-imidazo[4,5-b]pyridine], the “activity against Aurora C” value at Aurora C is recorded as “high activity”. Besides, the “activity against Aurora B” value on Aurora B is “high activity”. Further, the “activity against Aurora A” value at Aurora A is on record as “high activity”. Moreover, the “time the suspension remained stable” value in [4] (20% w/v aqueous Gelucire 44/14, 1.5 mg/mL) was “at least 10 days”; in [4] (20% w/v aqueous Poloxamer P124, 1.5 mg/mL), “at least 10 days”. The solubility in data set [4] (20% w/v aqueous TPGS solution, 20% w/v aqueous TPGS, 100 μL DMSO solution added to 900 μL excipient solution, read-out: concentration solubilised (clear solution) in the aqueous vehicle) is 1500 µg/mL; in [4] (20% w/v aqueous Cremophor EL, Cremophor RH 40, Labrasol ALF, Solutol HS15, Poloxamer P124, TPGS, Gelucire 44/14, read-out: concentration solubilised by any tested excipient), not above 1500 µg/mL. Besides, in data set [4] (20% w/v aqueous TPGS, 1.5 mg/mL), the “time the solution remained clear” value is on record as “up to 5 hours”. Moreover, the “interaction with cytochrome P450 activity” value in the data set with cytochrome P450 was “minimal interaction”. Moreover, at FLT3 kinases, the “activity against FLT3 kinases” value is “high activity”. At hERG, the “interaction with hERG” value was “minimal interaction”.
